Legend:
[1] = assay type: in vivo; conditions: dosing schemes up to 500 mg/kg
Description: The acute in-vivo toxicity of β-IDACYD was also determined to provide range-finding doses to be used in in-vivo studies and possibly implicate target organs for toxicity.

VIM-1 = VIM-1 (Pseudomonas aeruginosa, UniProt A0A0F7KYQ8); experiment: Spectrophotometric IC50 determination against MBL; assay type: biochemical; conditions: ± 1.07
[2] = molecular target: T1, MBL containing crude enzyme preparation (Kpn LA-26 NDM-1) (Klebsiella pneumoniae, UniProt C7C422); experiment: 1H NMR monitoring of meropenem hydrolysis by MBL crude enzyme preparation; assay type: biochemical; conditions: meropenem 0.18 mM, β-IDACYD 1.9 mM, over a 12 h period
T1 construct: an MBL containing crude enzyme preparation (Kpn LA-26 NDM-1, 485 µL); endogenous in cells; host or cells: Klebsiella pneumoniae clinical strain LA-26 (crude enzyme preparation)

Klebsiella pneumoniae = experiment: MIC of β-lactams alone or with 50 µM IDACYD against clinical isolates; assay type: cell-based
Description: Further the in-vitro inhibitory activity of IDACYDs was tested against highly resistant pathogens. […] Table 2: Collection of clinical isolates used for in-vitro evaluation

[3] = system: VIM-1 producing K. pneumoniae SEC-4; experiment: Neutropenic murine thigh infection model; assay type: in vivo, CD-1 mice; conditions: 30 mg/kg imipenem + 10 mg/kg β-IDACYD intravenously, 2 h intervals for 24 hours
Description: Example 6. In-vivo murine thigh infection model: A murine thigh infection model was utilized based on the biodistribution results. In a neutropenic mouse thigh infection model was administered intravenously a therapeutic scheme of either 30 mg/kg imipenem or 30 mg/kg imipenem co-administered with 10 mg/kg β-IDACYD in 2 h intervals for 24 hours. At the end of the treatment the bacterial burden of the thigh was reduced by 0.5 log10 in the presence of 10 mg/kg β-IDACYD compared to that of the antibiotic monotherapy.
Twenty, 10 weeks old female (CD-1) mice were rendered neutropenic by administration of two doses of cyclophosphamide (150 mg/kg and 100 mg/kg per mouse on days -4 and -1, respectively). On day 0, all mice were challenged with 0.1 mL of a 10^7 CFU/mL of VIM-1 producing K. pneumoniae SEC-4 by intramuscular injection in the right thigh. From the six mice in the control group that were treated with normal saline (Group A), two mice were sacrificed 2 hours post inoculation while the other mice in groups of seven mice each were intravenously treated with 30 mg/kg imipenem (Group B) or 30 mg/kg imipenem along with 10 mg/kg β-IDACYD (Group C) at 2 hour intervals for 24 hours. At 6-hours post inoculation two mice of group 1 as well as three mice of each of groups 2 and 3 were sacrificed and their thighs were aseptically removed. […]

[4] = system: MBL producing clinical strains; experiment: MIC potentiation over the whole collection of isolates; assay type: cell-based; conditions: 50 µM β-IDACYD
Description: Further the in-vitro inhibitory activity of IDACYDs was tested against highly resistant pathogens. Tables 3, 4 and 5 show the effect of IDACYDs using a collection of 36 highly resistant Gram negative strains (Table 2, Kirby-Bauer disc diffusion method) producing NDM, VIM and IMP type MBLs as well as 6 isolates expressing serine beta-lactamases (ESBLs, AmpCs). […] Clinical isolates co-expressing ESBLs and/or AmpC β-lactamases along with MBLs where re-sensitized to both imipenem and meropenem, as expected. Table 2: Collection of clinical isolates used for in-vitro evaluation

[5] = system: NDM, VIM and IMP producing K. pneumoniae clinical isolates; experiment: Time kill assays; assay type: cell-based
Description: In Fig. 3 the results of the time-kill assays are shown. […] Results are expressed as log10 CFU/mL. Experiments were performed in duplicate. Antibiotic-free control cultures were included in each set of experiments as controls. Error bars are indicative of standard error mean (SEM) (n=2 replicates).

[6] = isolate LA-34 (VIM, CMY), first entry of Table 3
[7] = isolate LA-34 (VIM, CMY), second entry of Table 3
[8] = isolate LAR-26I/15 (NDM, VIM, CTXM)
[9] = isolate LAR-37II/15 (NDM, VIM, CTXM)
[10] = isolate LAR-38I/15 (VIM, NDM, CTXM)
[11] = isolate LAR-7547 (NDM, VIM, CTXM)
[12] = isolate TZAN-59 (β-lactamase: None)

T1 sequence (C7C422 29-270 limits assumed): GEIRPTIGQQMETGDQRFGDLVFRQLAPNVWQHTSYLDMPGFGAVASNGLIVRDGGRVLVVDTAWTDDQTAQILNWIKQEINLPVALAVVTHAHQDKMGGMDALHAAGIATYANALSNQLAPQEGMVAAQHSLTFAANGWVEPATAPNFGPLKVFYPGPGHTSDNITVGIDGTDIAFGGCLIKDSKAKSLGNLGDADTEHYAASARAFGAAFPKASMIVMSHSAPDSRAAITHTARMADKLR

CO[C@@H]1[C@@H](OC)[C@H]2O[C@H]3[C@H](OC)[C@@H](OC)[C@@H](O[C@H]4[C@H](OC)[C@@H](OC)[C@@H](O[C@H]5[C@H](OC)[C@@H](OC)[C@@H](O[C@H]6[C@H](OC)[C@@H](OC)[C@@H](O[C@H]7[C@H](OC)[C@@H](OC)[C@@H](O[C@H]8[C@H](OC)[C@@H](OC)[C@@H](O[C@@H]1[C@@H](CN(CC(=O)O)CC(=O)O)O2)O[C@@H]8CN(CC(=O)O)CC(=O)O)O[C@@H]7CN(CC(=O)O)CC(=O)O)O[C@@H]6CN(CC(=O)O)CC(=O)O)O[C@@H]5CN(CC(=O)O)CC(=O)O)O[C@@H]4CN(CC(=O)O)CC(=O)O)O[C@@H]3CN(CC(=O)O)CC(=O)O [β-IDACYD]
cell morphology under a microscope (L929 fibroblast cells): did not present any morphological differences characteristic of cytotoxicity
acute in-vivo toxicity [1]: no deaths and no signs indicative of acute toxicity
IC50 (VIM-1): 15 µM
hydrolysis of meropenem in the presence of β-IDACYD [2]: no signals of hydrolysis of the drug could be observed
Imipenem /50µM β-IDACYD MIC (Klebsiella pneumoniae; isolate 6/100 (VIM)): 1 µg/mL
Meropenem /50µM β-IDACYD MIC (Klebsiella pneumoniae; isolate 6/100 (VIM)): 1 µg/mL
Imipenem /50µM β-IDACYD MIC (Klebsiella pneumoniae; isolate 2489 (NDM)): 0.5 µg/mL
Meropenem /50µM β-IDACYD MIC (Klebsiella pneumoniae; isolate 2489 (NDM)): 1 µg/mL
Imipenem /50µM β-IDACYD MIC (Klebsiella pneumoniae; isolate 2685 (VIM, CMY, CTXM)): 0.5 µg/mL
Meropenem /50µM β-IDACYD MIC (Klebsiella pneumoniae; isolate 2685 (VIM, CMY, CTXM)): <0.25 µg/mL
Ceftazidime/ 50µM β-IDACYD MIC (Klebsiella pneumoniae; isolate ALX-47 (OXA-48,CTX-M)): >256 µg/mL
Imipenem /50µM β-IDACYD MIC (Klebsiella pneumoniae; isolate ALX-47 (OXA-48,CTX-M)): 4 µg/mL
Meropenem /50µM β-IDACYD MIC (Klebsiella pneumoniae; isolate ALX-47 (OXA-48,CTX-M)): 4 µg/mL
Imipenem /50µM β-IDACYD MIC (Klebsiella pneumoniae; isolate ESDY-1780 (VIM, KPC)): 8 µg/mL
Meropenem /50µM β-IDACYD MIC (Klebsiella pneumoniae; isolate ESDY-1780 (VIM, KPC)): 32 µg/mL
Imipenem /50µM β-IDACYD MIC (Klebsiella pneumoniae; isolate ESDY-2681 (VIM-27)): <0.125 µg/mL
Meropenem /50µM β-IDACYD MIC (Klebsiella pneumoniae; isolate ESDY-2681 (VIM-27)): <0.25 µg/mL
Ceftazidime/ 50µM β-IDACYD MIC (Klebsiella pneumoniae; isolate ESDY-5742 (IMP)): 1 µg/mL
Imipenem /50µM β-IDACYD MIC (Klebsiella pneumoniae; isolate ESDY-5742 (IMP)): <0.125 µg/mL
Meropenem /50µM β-IDACYD MIC (Klebsiella pneumoniae; isolate ESDY-5742 (IMP)): <0.25 µg/mL
Imipenem /50µM β-IDACYD MIC (Klebsiella pneumoniae; isolate EY-20S (CMY, SHV)): 2 µg/mL
Meropenem /50µM β-IDACYD MIC (Klebsiella pneumoniae; isolate EY-20S (CMY, SHV)): 4 µg/mL
Imipenem /50µM β-IDACYD MIC (Klebsiella pneumoniae; isolate IT-17829 (CTXM, SHV)): 0.5 µg/mL
Meropenem /50µM β-IDACYD MIC (Klebsiella pneumoniae; isolate IT-17829 (CTXM, SHV)): 32 µg/mL
Imipenem /50µM β-IDACYD MIC (Klebsiella pneumoniae; isolate L078/11 (KPC)): 16 µg/mL
Meropenem /50µM β-IDACYD MIC (Klebsiella pneumoniae; isolate L078/11 (KPC)): 64 µg/mL
Imipenem /50µM β-IDACYD MIC (Klebsiella pneumoniae; isolate LA-26 (NDM)): <0.125 µg/mL
Meropenem /50µM β-IDACYD MIC (Klebsiella pneumoniae; isolate LA-26 (NDM)): <0.25 µg/mL
Imipenem /50µM β-IDACYD MIC (Klebsiella pneumoniae; isolate LA-27 (NDM, CTXM)): <0.125 µg/mL
Meropenem /50µM β-IDACYD MIC (Klebsiella pneumoniae; isolate LA-27 (NDM, CTXM)): <0.25 µg/mL
Ceftazidime/ 50µM β-IDACYD MIC (Klebsiella pneumoniae; isolate LA-28 (NDM, CTXM)): 32 µg/mL
Imipenem /50µM β-IDACYD MIC (Klebsiella pneumoniae; isolate LA-28 (NDM, CTXM)): <0.125 µg/mL
Meropenem /50µM β-IDACYD MIC (Klebsiella pneumoniae; isolate LA-28 (NDM, CTXM)): <0.25 µg/mL
Imipenem /50µM β-IDACYD MIC (Klebsiella pneumoniae; [6]): <0.5 µg/mL
Meropenem /50µM β-IDACYD MIC (Klebsiella pneumoniae; [6]): 0.25 µg/mL
Imipenem /50µM β-IDACYD MIC (Klebsiella pneumoniae; [7]): 0.25 µg/mL
Meropenem /50µM β-IDACYD MIC (Klebsiella pneumoniae; [7]): 0.25 µg/mL
Imipenem /50µM β-IDACYD MIC (Klebsiella pneumoniae; isolate LA-38 (NDM)): <0.125 µg/mL
Meropenem /50µM β-IDACYD MIC (Klebsiella pneumoniae; isolate LA-38 (NDM)): 0.5 µg/mL
Ceftazidime/ 50µM β-IDACYD MIC (Klebsiella pneumoniae; isolate LA-82/16 (VIM, SHV)): 32 µg/mL
Imipenem /50µM β-IDACYD MIC (Klebsiella pneumoniae; isolate LA-82/16 (VIM, SHV)): <0.125 µg/mL
Meropenem /50µM β-IDACYD MIC (Klebsiella pneumoniae; isolate LA-82/16 (VIM, SHV)): 0.25 µg/mL
Ceftazidime/ 50µM β-IDACYD MIC (Klebsiella pneumoniae; isolate LA-109/16 (VIM, CTXM)): 32 µg/mL
Imipenem /50µM β-IDACYD MIC (Klebsiella pneumoniae; isolate LA-109/16 (VIM, CTXM)): <0.125 µg/mL
Meropenem /50µM β-IDACYD MIC (Klebsiella pneumoniae; isolate LA-109/16 (VIM, CTXM)): <0.25 µg/mL
Imipenem /50µM β-IDACYD MIC (Klebsiella pneumoniae; isolate LA-419/16 (NDM,CTXM)): <0.125 µg/mL
Meropenem /50µM β-IDACYD MIC (Klebsiella pneumoniae; isolate LA-419/16 (NDM,CTXM)): <0.25 µg/mL
Imipenem /50µM β-IDACYD MIC (Klebsiella pneumoniae; isolate LA-470/17 (NDM)): 8 µg/mL
Meropenem /50µM β-IDACYD MIC (Klebsiella pneumoniae; isolate LA-470/17 (NDM)): 32 µg/mL
Imipenem /50µM β-IDACYD MIC (Klebsiella pneumoniae; [8]): 0.125 µg/mL
Meropenem /50µM β-IDACYD MIC (Klebsiella pneumoniae; [8]): 0.5 µg/mL
Imipenem /50µM β-IDACYD MIC (Klebsiella pneumoniae; [9]): <0.125 µg/mL
Meropenem /50µM β-IDACYD MIC (Klebsiella pneumoniae; [9]): <0.25 µg/mL
Imipenem /50µM β-IDACYD MIC (Klebsiella pneumoniae; [10]): <0.125 µg/mL
Meropenem /50µM β-IDACYD MIC (Klebsiella pneumoniae; [10]): <0.25 µg/mL
Imipenem /50µM β-IDACYD MIC (Klebsiella pneumoniae; isolate LAR-40II/15 (KPC)): 16 µg/mL
Meropenem /50µM β-IDACYD MIC (Klebsiella pneumoniae; isolate LAR-40II/15 (KPC)): 64 µg/mL
Imipenem /50µM β-IDACYD MIC (Klebsiella pneumoniae; isolate LAR-2873 (VIM-12)): <0.125 µg/mL
Meropenem /50µM β-IDACYD MIC (Klebsiella pneumoniae; isolate LAR-2873 (VIM-12)): <0.25 µg/mL
Ceftazidime/ 50µM β-IDACYD MIC (Klebsiella pneumoniae; isolate LAR-4011/15): 32 µg/mL
Imipenem /50µM β-IDACYD MIC (Klebsiella pneumoniae; [11]): 4 µg/mL
Meropenem /50µM β-IDACYD MIC (Klebsiella pneumoniae; [11]): 16 µg/mL
Imipenem /50µM β-IDACYD MIC (Klebsiella pneumoniae; isolate SEC-2 (VIM)): 2 µg/mL
Meropenem /50µM β-IDACYD MIC (Klebsiella pneumoniae; isolate SEC-2 (VIM)): 2 µg/mL
Imipenem /50µM β-IDACYD MIC (Klebsiella pneumoniae; isolate SEC-4 (VIM)): 2 µg/mL
Meropenem /50µM β-IDACYD MIC (Klebsiella pneumoniae; isolate SEC-4 (VIM)): 1 µg/mL
Imipenem /50µM β-IDACYD MIC (Klebsiella pneumoniae; [12]): 0.5 µg/mL
Meropenem /50µM β-IDACYD MIC (Klebsiella pneumoniae; [12]): 0.5 µg/mL
Ceftazidime/ 50µM β-IDACYD MIC (Klebsiella pneumoniae; isolate UoA 12/227 (VIM)): <0.25 µg/mL
Imipenem /50µM β-IDACYD MIC (Klebsiella pneumoniae; isolate UoA 12/227 (VIM)): <0.125 µg/mL
Meropenem /50µM β-IDACYD MIC (Klebsiella pneumoniae; isolate UoA 12/227 (VIM)): <0.25 µg/mL
Ceftazidime/ 50µM β-IDACYD MIC (Klebsiella pneumoniae; isolate UoA 1995 (VIM)): <0.25 µg/mL
Imipenem /50µM β-IDACYD MIC (Klebsiella pneumoniae; isolate UoA 1995 (VIM)): <0.125 µg/mL
Meropenem /50µM β-IDACYD MIC (Klebsiella pneumoniae; isolate UoA 1995 (VIM)): <0.25 µg/mL
reduction of bacterial burden of the thigh compared to antibiotic monotherapy [3]: 0.5 log10
reduction of meropenem's and imipenem's minimum inhibitory concentration (MIC) [4]: up to 256 fold
reduction of the bacterial load (CFU/mL) compared to that of the antibiotic alone ([5]; 50 µM β-IDACYD with meropenem or imipenem at MIC or 2xMIC, 24 hour incubation, strains LA26, LA 109/16, 5742): > 8 log10
bacterial load in time-kill assay ([5]; β-IDACYD 50 µM added to MIC or 2xMIC meropenem or imipenem): bacterial load remains close to zero
